# Laboratory results published in patent US9567325B2, “Carboxamide compounds and their use as calpain inhibitors” (AbbVie Deutschland GmbH & Co. KG, priority 2009, dated 2017).
# Columns and labels:
# Assay type in all cases: biochemical
# [1] = molecular target: T1, calpain-1 isolated from human erythrocytes (Homo sapiens, UniProt P07384); assay: Calpain I enzyme inhibition in vitro, kinetic fluorescence assay; conditions: apparent Ki calculated from IC50 by Cheng-Prussoff; 100 μM Suc-Leu-Tyr-AMC, pH 7.3, room temperature
# T1 construct: 20 nM calpain-1-isolated from human erythrocytes (Calbiochem #208713); purchased Calbiochem 208713; host or cells: human erythrocytes (natural source)
# T1 sequence (P07384 1-714): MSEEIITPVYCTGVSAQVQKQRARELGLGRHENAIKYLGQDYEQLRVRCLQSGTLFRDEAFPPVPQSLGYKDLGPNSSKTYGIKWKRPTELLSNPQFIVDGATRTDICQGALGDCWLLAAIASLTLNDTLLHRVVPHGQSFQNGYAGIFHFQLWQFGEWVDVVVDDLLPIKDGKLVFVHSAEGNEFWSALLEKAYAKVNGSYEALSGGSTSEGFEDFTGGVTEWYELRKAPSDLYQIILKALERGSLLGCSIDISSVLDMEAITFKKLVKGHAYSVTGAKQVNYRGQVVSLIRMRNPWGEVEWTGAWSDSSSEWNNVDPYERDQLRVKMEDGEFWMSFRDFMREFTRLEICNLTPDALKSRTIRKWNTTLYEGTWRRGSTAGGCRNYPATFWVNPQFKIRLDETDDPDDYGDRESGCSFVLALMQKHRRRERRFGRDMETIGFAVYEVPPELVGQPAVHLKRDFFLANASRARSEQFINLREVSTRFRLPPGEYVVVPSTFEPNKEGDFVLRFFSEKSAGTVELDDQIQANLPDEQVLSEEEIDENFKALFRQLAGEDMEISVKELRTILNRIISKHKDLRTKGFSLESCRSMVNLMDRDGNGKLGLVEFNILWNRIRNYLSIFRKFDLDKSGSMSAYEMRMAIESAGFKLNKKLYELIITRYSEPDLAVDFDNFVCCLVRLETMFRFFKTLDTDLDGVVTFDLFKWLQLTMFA
# T1 sequence (P04632 1-268 partner): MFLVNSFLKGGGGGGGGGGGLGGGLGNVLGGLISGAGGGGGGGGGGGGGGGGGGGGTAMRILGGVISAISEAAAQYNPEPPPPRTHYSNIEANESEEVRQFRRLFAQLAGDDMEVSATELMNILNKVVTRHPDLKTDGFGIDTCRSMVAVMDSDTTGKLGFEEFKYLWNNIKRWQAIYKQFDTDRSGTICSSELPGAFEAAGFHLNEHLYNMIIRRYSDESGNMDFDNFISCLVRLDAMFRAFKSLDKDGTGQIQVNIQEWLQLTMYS
# Description: (§1) The following solutions and buffers were employed: • HBS (for 40 ml): 800 μl 1M HEPES; 2.16 ml 100 mM KCl; 4.8 ml 1M NaCl; 3.59 ml 5% glucose; 60 μl 1M MgSO4; 400 μl 100 mM Na pyruvate, 28.19 ml water; pH 7.2-7.5. • lysis buffer (for 20 ml): 400 μl 1M Tris pH 8.2; 2.74 ml 1M NaCl; 520 μl 0.5M EDTA; 2 ml 10% triton X-100; 0.8 ml (=1:25) CompletePlus (1 tablet/2 ml H2O); 200 μl 100 mM Pefabloc; 13.34 ml water, pH 8.2. • TBST (10×) (for 11): 100 mM Tris (12.1 g); 1.5M NaCl (87 g); 1% Tween 20 (10 g), adjusted to pH 8. I Enzyme Inhibition In Vitro: • Testing for blockade of the corresponding enzymic activities was carried out by means of kinetic fluorescence assays (excitation 390 nm, emission 460 nm). • Apparent Ki values were calculated from the experimentally determined IC50 values by the Cheng-Prussoff relation assuming a reversible competitive enzyme inhibition. The Km values of the substrates used under the assay conditions indicated above were: 90 μM (Z-Phe-Arg-AMC, cathepsin B), 10 μM (Z-Gly-Pro-Arg-AMC, cathepsin K), 2 μM (Z-Phe-Arg-AMC, cathepsin L), and 30 μM (Z-Val-Val-Arg-AMC, cathepsin S). • The indicated Ki values are averages of the inhibition constants calculated on the basis of 2 to 4 independent dose-effect plots. • The following assays were used: • 1. Calpain I: • 20 nM calpain-1-isolated from human erythrocytes (Calbiochem #208713), 100 μM Suc-Leu-Tyr-AMC (Bachem #1-1355) as substrate in buffer with 62 mM imidazole, 0.3 mM CaCl2, 0.10% CHAPS, 0.05% BSA, 1 mM DTT at pH 7.3 and room temperature. • 2. Cathepsin B: • 0.25 nM cathepsin B—isolated from human liver (Calbiochem #219362), 100 μM Z-Phe-Arg-AMC (Bachem #1-1160) as substrate 50 mM MES, 2 mM EDTA, 0.05% Brij 35, 2.5 mM L-cysteine, pH 6.0, room temperature. • 3. Cathepsin K: • 3 nM cathepsin K-activated from recombinant human procathepsin K from E. coli (Calbiochem #342001), 10 μM Z-Gly-Pro-Arg-AMC (Biomol #P-142) as substrate in 50 mM MES, 2 mM EDTA, 0.05% Brij 35, 2.5 mM L-cysteine, pH 6.0, room temperature. • 4. Cathepsin L: • 1 nM cathepsin L—isolated from human liver (Calbiochem #219402), 2 μM Z-Phe-Arg-AMC (Bachem #1-1160) as substrate in 50 mM MES, 2 mM EDTA, 0.05% Brij 35, 2.5 mM L-cysteine, pH 6.0, room temperature. • 5. Cathepsin S: • 0.5 nM recombinant human cathepsin S from E. coli (Calbiochem #219343), 20 μM Z-Val-Val-Arg-AMC (Bachem #I-1540) as substrate in 50 mM MES, 2 mM EDTA, 0.05% Brij 35, 2.5 mM L-cysteine, pH 6.0, room temperature. • The results of the in vitro determination are indicated in Table 1. The following abbreviations are used in Table 1: • In the “Calpain activity” column, +++ stands for a calpain Ki (Ki(calpain)) of ≦40 nM, and ++ means: 40 nM<Ki(Calpain)≦100 nM and + means 100 nM<Ki(Calpain)≦300 nM. • The “Sel. cat. B” column indicates the Ki(cathepsin B)/Ki(calpain) ratio. In this connection, ++ means a Ki(cathepsin B)/Ki(calpain) ratio of ≧30 and + means 10≦Ki(cathepsin B)/Ki(calpain)<30. • The “Sel. cat. K” column indicates the Ki(cathepsin K)/Ki(calpain) ratio. In this connection, ++ means a Ki(cathepsin K)/Ki(calpain) ratio of ≧30 and + means 10≦Ki(cathepsin K)/Ki(calpain)<30. • The “Sel. cat. L” column indicates the Ki(cathepsin L)/Ki(calpain) ratio. In this connection, ++ means a Ki(cathepsin L)/Ki(calpain) ratio of ≧50 and + means 30≦Ki(cathepsin L)/Ki(calpain)<50. • The “Sel. cat. S” column indicates the Ki(cathepsin S)/Ki(calpain) ratio. In this connection, ++ means a Ki(cathepsin S)/Ki(calpain) ratio of ≧100 and + means 50≦Ki(cathepsin S)/Ki(calpain)<100.
# [2] = molecular target: T2, cathepsin B isolated from human liver (Homo sapiens, UniProt P07858); assay: Cathepsin B enzyme inhibition in vitro, kinetic fluorescence assay (selectivity vs calpain); conditions: ratio of Ki values; Z-Phe-Arg-AMC substrate, pH 6.0
# T2 construct: 0.25 nM cathepsin B—isolated from human liver (Calbiochem #219362); purchased Calbiochem 219362; host or cells: human liver (natural source)
# Description: as §1
# [3] = molecular target: T3, cathepsin K activated from recombinant human procathepsin K (Homo sapiens, UniProt P43235); assay: Cathepsin K enzyme inhibition in vitro, kinetic fluorescence assay (selectivity vs calpain); conditions: ratio of Ki values; Z-Gly-Pro-Arg-AMC substrate, pH 6.0
# T3 construct: purchased Calbiochem 342001; host or cells: E. coli
# T3 sequence (P43235 115-329): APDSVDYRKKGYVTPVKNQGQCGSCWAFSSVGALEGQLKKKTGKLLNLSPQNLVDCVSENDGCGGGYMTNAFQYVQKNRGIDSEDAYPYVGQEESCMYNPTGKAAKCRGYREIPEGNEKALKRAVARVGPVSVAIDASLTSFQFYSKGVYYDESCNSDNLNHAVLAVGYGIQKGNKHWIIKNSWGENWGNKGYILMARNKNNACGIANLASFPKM
# Description: as §1
# [4] = molecular target: T4, cathepsin L isolated from human liver (Homo sapiens, UniProt P07711); assay: Cathepsin L enzyme inhibition in vitro, kinetic fluorescence assay (selectivity vs calpain); conditions: ratio of Ki values; Z-Phe-Arg-AMC substrate, pH 6.0
# T4 construct: 1 nM cathepsin L—isolated from human liver (Calbiochem #219402); purchased Calbiochem 219402; host or cells: human liver (natural source)
# T4 sequence (P07711 114-333): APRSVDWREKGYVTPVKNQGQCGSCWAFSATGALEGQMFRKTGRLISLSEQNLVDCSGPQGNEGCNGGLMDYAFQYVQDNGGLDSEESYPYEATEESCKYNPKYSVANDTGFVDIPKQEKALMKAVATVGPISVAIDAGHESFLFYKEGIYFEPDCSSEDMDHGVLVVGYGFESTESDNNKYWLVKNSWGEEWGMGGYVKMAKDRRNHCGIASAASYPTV
# Description: as §1
# [5] = molecular target: T5, recombinant human cathepsin S (Homo sapiens, UniProt P25774); assay: Cathepsin S enzyme inhibition in vitro, kinetic fluorescence assay (selectivity vs calpain); conditions: ratio of Ki values; Z-Val-Val-Arg-AMC substrate, pH 6.0
# T5 construct: purchased Calbiochem 219343; host or cells: E. coli
# T5 sequence (P25774 115-331): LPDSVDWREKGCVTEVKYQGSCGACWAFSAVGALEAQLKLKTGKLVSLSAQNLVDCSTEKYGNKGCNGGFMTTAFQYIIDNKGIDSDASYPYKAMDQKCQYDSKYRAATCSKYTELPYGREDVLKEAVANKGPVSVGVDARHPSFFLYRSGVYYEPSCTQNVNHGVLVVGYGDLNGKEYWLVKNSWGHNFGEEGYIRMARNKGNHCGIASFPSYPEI
# Description: as §1
Compound,Ki [1] [nM],Sel cat. B (Ki(cathepsin B)/Ki(calpain) ratio) [2],Sel cat. K (Ki(cathepsin K)/Ki(calpain) ratio) [3],Sel cat. L (Ki(cathepsin L)/Ki(calpain) ratio) [4],Sel cat. S (Ki(cathepsin S)/Ki(calpain) ratio) [5]
"NC(=O)C(=O)C(Cc1ccccc1)NC(=O)c1cccnc1-c1csc(-c2ccccc2)n1 (stereo not drawn) [Example 7, N-(4-Amino-3,4-dioxo-1-phenylbutan-2-yl)-2-(2-phenyl-1,3-thiazol-4-yl)pyridine-3-carboxamide]",≤ 40,++ (++ means a Ki(cathepsin B)/Ki(calpain) ratio of ≧30),+ (+ means 10≦Ki(cathepsin K)/Ki(calpain)<30),++ (++ means a Ki(cathepsin L)/Ki(calpain) ratio of ≧50),++ (++ means a Ki(cathepsin S)/Ki(calpain) ratio of ≧100)
"NC(=O)C(=O)C(Cc1ccc(F)cc1)NC(=O)c1cccnc1-c1csc(-c2ccccc2)n1 (stereo not drawn) [Example 15, N-(4-Amino-1-(4-fluorophenyl)-3,4-dioxobutan-2-yl)-2-(2-phenylthiazol-4-yl)nicotinamide]",40 to 100,++ (++ means a Ki(cathepsin B)/Ki(calpain) ratio of ≧30),+ (+ means 10≦Ki(cathepsin K)/Ki(calpain)<30),++ (++ means a Ki(cathepsin L)/Ki(calpain) ratio of ≧50),++ (++ means a Ki(cathepsin S)/Ki(calpain) ratio of ≧100)
"NC(=O)C(=O)C(Cc1ccccc1)NC(=O)c1cccnc1-c1nc(-c2ccc(F)cc2)cs1 (stereo not drawn) [Example 4, N-(4-Amino-3,4-dioxo-1-phenylbutan-2-yl)-2-[4-(4-fluorophenyl)-1,3-thiazol-2-yl]pyridine-3-carboxamide]",40 to 100,+ (+ means 10≦Ki(cathepsin B)/Ki(calpain)<30),+ (+ means 10≦Ki(cathepsin K)/Ki(calpain)<30),++ (++ means a Ki(cathepsin L)/Ki(calpain) ratio of ≧50),++ (++ means a Ki(cathepsin S)/Ki(calpain) ratio of ≧100)
"NC(=O)C(=O)C(Cc1ccccc1)NC(=O)c1cccnc1-c1ncc(-c2ccccc2)[nH]1 (stereo not drawn) [Example 2, N-(4-Amino-3,4-dioxo-1-phenylbutan-2-yl)-2-(5-phenyl-1H-imidazol-2-yl)pyridine-3-carboxamide]",100 to 300,–,+ (+ means 10≦Ki(cathepsin K)/Ki(calpain)<30),–,–
"NC(=O)C(=O)C(Cc1ccccc1)NC(=O)c1cccnc1-c1csc(-c2ccccc2Cl)n1 (stereo not drawn) [Example 8, N-(4-Amino-3,4-dioxo-1-phenylbutan-2-yl)-2-[2-(2-chlorophenyl)-1,3-thiazol-4-yl]pyridine-3-carboxamide]",≤ 40,++ (++ means a Ki(cathepsin B)/Ki(calpain) ratio of ≧30),+ (+ means 10≦Ki(cathepsin K)/Ki(calpain)<30),++ (++ means a Ki(cathepsin L)/Ki(calpain) ratio of ≧50),++ (++ means a Ki(cathepsin S)/Ki(calpain) ratio of ≧100)
"NC(=O)C(=O)C(Cc1ccccc1)NC(=O)c1cccnc1-c1csc(-c2ccc(F)cc2)n1 (stereo not drawn) [Example 5, N-(4-Amino-3,4-dioxo-1-phenylbutan-2-yl)-2-[2-(4-fluorophenyl)-1,3-thiazol-4-yl]pyridine-3-carboxamide]",40 to 100,+ (+ means 10≦Ki(cathepsin B)/Ki(calpain)<30),–,+ (+ means 30≦Ki(cathepsin L)/Ki(calpain)<50),++ (++ means a Ki(cathepsin S)/Ki(calpain) ratio of ≧100)
"NC(=O)C(=O)C(Cc1ccccc1)NC(=O)c1cccnc1-c1nc2ccccc2o1 (stereo not drawn) [Example 16, N-(4-amino-3,4-dioxo-1-phenylbutan-2-yl)-2-(benzo[d]oxazol-2-yl)nicotinamide]",100 to 300,+ (+ means 10≦Ki(cathepsin B)/Ki(calpain)<30),+ (+ means 10≦Ki(cathepsin K)/Ki(calpain)<30),–,++ (++ means a Ki(cathepsin S)/Ki(calpain) ratio of ≧100)
